According to patent US5674905A, “Bicyclooctane and bicycloheptane derivatives” (James Black Foundation Limited, priority 1992, dated 1997):

Legend:
CCKB receptor = target: T1, CCKB receptor (Mus musculus, UniProt P56481); assay: radioligand binding assay at the CCKB receptor in mouse cortical membranes ([125I]-CCK8S); conditions: 150 min at 21±3°; for Ki: read-out: CCKB pKi (converted)
T1 construct: The cortex was dissected, weighed and homogenised in 40 ml ice-cold buffer; from tissue; host or cells: cerebral cortex membranes of male CD1 mice (Charles River)
T1 sequence (P56481 1-453): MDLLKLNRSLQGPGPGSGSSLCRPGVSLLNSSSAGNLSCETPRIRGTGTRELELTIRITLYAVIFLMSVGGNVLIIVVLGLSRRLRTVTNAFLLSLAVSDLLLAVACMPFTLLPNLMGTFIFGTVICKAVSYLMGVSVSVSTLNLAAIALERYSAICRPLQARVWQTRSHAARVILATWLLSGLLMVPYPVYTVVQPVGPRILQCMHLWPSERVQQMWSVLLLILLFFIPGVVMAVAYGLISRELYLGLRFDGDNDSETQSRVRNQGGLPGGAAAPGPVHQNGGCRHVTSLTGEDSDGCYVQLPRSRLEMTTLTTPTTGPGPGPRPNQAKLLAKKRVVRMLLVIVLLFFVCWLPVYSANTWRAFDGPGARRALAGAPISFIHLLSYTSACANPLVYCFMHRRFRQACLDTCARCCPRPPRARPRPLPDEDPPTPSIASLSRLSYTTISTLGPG
How it was run: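 Competition binding on cortical membranes from male CD1 mice in pH 7.2 HEPES buffer with bacitracin, using [125I]-CCK8S (200 pM) and test compound, 150 min at 21±3°. Non-specific binding defined with L-365,260 ([…]). Bound radioactivity collected by filtration and gamma-counted.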

CCKA = target: T2, CCKA (Cavia porcellus, UniProt Q63931); assay: CCKA binding assay in guinea-pig pancreas membranes ([125I]-CCK8(S)); conditions: 150 minutes at 21±3°; for Ki: 0.375 μM PD134,308, read-out: CCKA pKi (converted); for CCKA pKi: 0.375 μM PD134,308
T2 construct: The pancreatata were removed from male guinea-pigs (200-300 g; Dunkin Hartley); from tissue; host or cells: pancreas membranes of male Dunkin Hartley guinea-pigs
T2 sequence (Q63931 1-430): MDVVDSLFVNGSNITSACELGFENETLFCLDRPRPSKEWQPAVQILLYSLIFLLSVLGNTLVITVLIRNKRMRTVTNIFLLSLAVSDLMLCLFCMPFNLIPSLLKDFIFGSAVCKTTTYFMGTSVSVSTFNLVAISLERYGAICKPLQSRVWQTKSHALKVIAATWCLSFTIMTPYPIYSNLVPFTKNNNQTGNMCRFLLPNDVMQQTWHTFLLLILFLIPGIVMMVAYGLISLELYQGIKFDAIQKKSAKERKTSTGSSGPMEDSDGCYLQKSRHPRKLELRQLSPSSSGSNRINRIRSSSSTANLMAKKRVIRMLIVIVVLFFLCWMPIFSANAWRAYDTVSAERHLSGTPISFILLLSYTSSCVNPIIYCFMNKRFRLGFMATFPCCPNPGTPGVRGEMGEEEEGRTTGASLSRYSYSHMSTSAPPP
Procedure: The compounds of the examples were also tested in a CCKA binding assay as follows:
The pancreatata were removed from male guinea-pigs (200-300 g; Dunkin Hartley) and placed in ice-cold HEPES buffer (pH 7.2 @ 21±3°). The pancreatata were homogenised in 40 ml ice-cold HEPES buffer using a polytron (Brinkmann, PT10, setting 10) 4×1 second. The homogenate was centrifuged at 39,800 g for 15 min at 4°. The supernatant was discarded and the pellet re-suspended using a Teflon-in-glass homogeniser in 20 volumes of fresh buffer and re-centrifuged as above. The final pellet was re-suspended using a Teflon-in-glass homogeniser to a tissue concentration of 1 mg.ml^-1 (original wet weight), and filtered through 500 μm pore-size Nytex mesh.
The membranes (400 μl; containing 0.375 μM PD134,308) are incubated for 150 minutes at 21±3° in a final volume of 0.5 ml with HEPES buffer containing [^125 I]-CCK8 (S)(50 μl; pM) and competing compound. Total and non-specific binding of [^125 I]-CCK8 (S) are defined using 50 μl of buffer and 50 μl of 100 nM L-364,718 respectively. The assay is terminated by rapid filtration through pre-soaked Whatman GF/B filters using a Brandell Cell Harvester. The filters were washed (3×3 ml) with ice-cold 50 mM Tris HCl (pH 7.4 at 4°) and bound radioactivity is determined by counting (1 min) in a gamma counter.

gastrin receptors = target: T3, gastrin receptors (Rattus norvegicus, UniProt P30553); assay: gastrin antagonist activity in an immature rat stomach assay (pentagastrin-stimulated acid secretion); conditions: isolated immature rat stomach, cumulative pentagastrin dose-response curves; for Kb: read-out: Gastrin pKB (converted)
T3 construct: from tissue; host or cells: isolated perfused whole stomach of immature rats (33-50 g, ca. 21 days old)
T3 sequence (P30553 1-452): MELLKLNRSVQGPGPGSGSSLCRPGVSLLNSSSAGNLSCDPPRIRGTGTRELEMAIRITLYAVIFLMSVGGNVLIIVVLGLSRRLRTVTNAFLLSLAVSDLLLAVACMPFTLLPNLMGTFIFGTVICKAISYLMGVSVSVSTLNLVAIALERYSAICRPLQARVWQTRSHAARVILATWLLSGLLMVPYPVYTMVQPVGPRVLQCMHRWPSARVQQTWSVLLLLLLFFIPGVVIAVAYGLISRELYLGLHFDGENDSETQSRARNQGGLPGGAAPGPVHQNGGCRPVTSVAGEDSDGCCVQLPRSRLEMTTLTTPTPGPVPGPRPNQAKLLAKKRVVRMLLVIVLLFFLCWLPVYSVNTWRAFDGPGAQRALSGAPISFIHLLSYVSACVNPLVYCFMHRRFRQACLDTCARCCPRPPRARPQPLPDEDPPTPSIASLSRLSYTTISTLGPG
Procedure: The compounds of the examples were also tested for gastrin antagonist activity in an immature rat stomach assay. The procedure was as follows:
The oesophagus of immature rats (33-50 g, ca. 21 days old) was ligated at the level of the cardiac sphincter and the duodenal sphincter was cannulated. The stomach was excised and flushed with ca. 1 ml of unbuffered physiological saline solution. The fundus was punctured and cannulated. A further 4-5 ml of unbuffered solution was flushed through the stomach to ensure the preparation was not leaking. The stomach was lowered into a jacketed organ bath containing 40 ml of buffered solution containing 3×10^-8 M 5-methyl-furmethide, maintained at 37° and gassed vigorously with 95% O2 /5% CO2. The stomach was continuously perfused at a rate of 1 ml min^-1 with unbuffered solution gassed with 100% O2 with the perfusate passing over an internally referenced pH-electrode fixed 12 cm above the stomach.
After 120 min of stabilisation the drugs were added directly to the serosal solution in the organ bath and after a further 60 min cumulative pentagastrin dose-response curves were started. Changes in acid secretion were monitored and the curves analysed according to Black et. al., Br. J. Pharmacol., 1985, 86, 581.

Row | Compound | Ki (CCKB receptor) | Ki (CCKA) | Kb (gastrin receptors) | CCKB pKi (CCKB receptor) | CCKA pKi (CCKA) | Gastrin pKB (gastrin receptors; 60 min)
1 | O=C(O)CNC(=O)[C@H]1CCCN1C(=O)C1C2c3ccccc3C(c3cc4ccccc4cc32)C1C(=O)NCC12CC3CC(CC(C3)C1)C2 (single isomer, unassigned) [Example 37, cis-7-(2R-carboxymethylaminocarbonyl-pyrrolidinocarbonyl)-8-(1-adamantylmethylaminocarbonyl)-2,3-benzo-5,6-(2,3-naphtho)bicyclo[2.2.2]octane] | 158 nM | 3160 nM | 501 nM |  |  | 
2 | (±)-endo-cis-8-(1-adamantylmethylaminocarbonyl)-2-(±)-benzyl-5,6-benzobicyclo[2.2.2]octane-7-carboxylic acid [Example 36] |  |  |  | 5.8 | 5.4 | 
3 | O=C(NCC12CC3CC(CC(C3)C1)C2)C1C2C=CC(c3ccccc32)C1C(=O)N[C@H](Cc1c[nH]c2ccccc12)C(=O)O (single isomer, unassigned) [Example 18, exo-cis-7-(2-R-(3-indolyl)-1-carboxy-ethylaminocarbonyl)-8-(1-adamantylmethylaminocarbonyl)-5,6-benzobicyclo[2.2.2]oct-2-ene] | 794 nM | 1000 nM | 1000 nM |  |  | 
4 | exo-cis-7-(2-R-(3-indolyl)-1-carboxy-ethylaminocarbonyl)-8-(1-adamantylmethylaminocarbonyl)-5,6-benzobicyclo[2.2.2]oct-2-ene [Example 17] |  |  |  | 6.8 | 6.3 | 6.2
5 | O=C(O)CNC(=O)[C@H]1CCCN1C(=O)C1C2c3ccccc3C(c3cc4ccccc4cc32)C1C(=O)NCC12CC3CC(CC(C3)C1)C2 (single isomer, unassigned) [Example 38, cis-7-(2R-carboxymethylaminocarbonyl-pyrrolidinocarbonyl)-8-(1-adamantylmethylaminocarbonyl)-2,3-benzo-5,6-(2,3-naphtho)bicyclo[2.2.2]octane] | 251 nM | 7940 nM | 631 nM |  |  | 
6 | endo-cis-7-(2-R-carboxy-pyrrolidinocarbonyl)-8-(1-adamantylmethylaminocarbonyl)-2-oxo-5,6-benzobicyclo[2.2.2]octane [Example 35] |  |  |  | 5.0 | 4.8 | 

Other lines, results leading:

Row | Ki (CCKB receptor) | Ki (CCKA) | Kb (gastrin receptors) | CCKB pKi (CCKB receptor) | CCKA pKi (CCKA) | Gastrin pKB (gastrin receptors; 60 min) | Compound
7 | 3980 nM | 6310 nM |  |  |  |  | O=C(O)CNC(=O)[C@H]1CCCN1C(=O)C1C2CCC(c3ccccc32)C1C(=O)NCC12CC3CC(CC(C3)C1)C2 (stereo partly drawn) [Example 42, cis-exo-7-(2R-carboxymethylaminocarbonyl-pyrrolidinocarbonyl)-8-(1-adamantylmethylaminocarbonyl)-2,3-benzobicyclo[2.2.2]octane]
8 | 5010 nM | 7940 nM |  |  |  |  | C[C@@H](NC(=O)[C@H]1CCCN1C(=O)C1C2CCC(c3ccccc32)C1C(=O)NCC12CC3CC(CC(C3)C1)C2)C(=O)O (stereo partly drawn) [Example 41, cis-exo-7-(2R-(1R-carboxyethylaminocarbonyl)-pyrrolidinocarbonyl)-8-(1-adamantylmethylaminocarbonyl)-2,3-benzobicyclo[2.2.2]octane]
9 | 2000 nM | 10000 nM |  |  |  |  | C[C@H](NC(=O)[C@@H]1CCCN1C(=O)C1C2CCC(c3ccccc32)C1C(=O)NCC12CC3CC(CC(C3)C1)C2)C(=O)O (stereo partly drawn) [Example 43, cis-exo-7-(2S-(1S-carboxyethylaminocarbonyl)-pyrrolidinocarbonyl)-8-(1-adamantylmethylaminocarbonyl)-2,3-benzobicyclo[2.2.2]octane]
